Experimental data published in article PMC9081086, “Stapling strategy enables improvement of antitumor activity and proteolytic stability of host-defense peptide hymenochirin-1B” (RSC Advances, 2018).
Positions of bridges follow the written chain, without caps; N, C: chain ends. Non-standard residues stand in square brackets, D forms with d. Residues, ends and D or L forms follow the SMILES beside them. R8 = C=CCCCCCC[C@@](C)(N)C(=O)O; S5 = C=CCCC[C@](C)(N)C(=O)O

Legend:
[1] = all-hydrocarbon stapling by ring-closing olefin metathesis between S5/S5 (i,i+4) or R8/S5 (i,i+7) olefinic residues, Grubbs 1st-generation catalyst (10 mM in DCE per text; 6 mM per schemes), 2 x 2 h, on Rink Amide MBHA resin; details: the molecule shown is the open-chain precursor, 21-membered ring, 1,2-dichloroethane, 35.0 °C, 4.0 h, 60 steps
[2] = system: human normal Lung cell BEAS-2; experiment: MTT toxicity against normal cells, BEAS-2B; assay type: cell-based; details: 96 h
Procedure: (§1) Anti-tumor activity was evaluated by the standard MTT assay with a slight modification measuring the median inhibitory concentration (IC50) values.[35] HCT-116 cells, HepG2 cells and A549 cells were plated in triplicate wells into a 96-well plate at 5 × 10^3/well and cultured routinely for 24 h. Cells were incubated with increasing concentrations of hymenochirin-1B and its analogs (0.1–30 μM) and continued to culture with DMEM plus 10% FBS at 37 °C and 5% CO2. After being incubated for 96 h, the absorbance A value was determined by MTT at 540 nm. The untreated HCT-116 cells, HepG2 cells and A549 cells were used as control. Each experiment was performed in duplicate. The inhibitory rate was calculated according to the following formula: inhibitory rate = (a value of the control group − a value of the study group)/a value of the control group × 100%.
(§2) To further research the selectivity of these peptides towards cancer cells over normal cells. The growth-inhibitory activities of peptides were evaluated using the 3-(4,5-dimethylthiazol-2-yl)-2,5-diphenyltetrazolium bromide (MTT) assay against three normal cells,[35] namely, human normal liver cell LO-2, human normal Lung cell BEAS-2 and human normal kidney cell 293 T (Table S2 ^†). The experiments procedure was performed just same as growth inhibition of the peptides against tumor cells. […] It might be due to the higher averaged hydrophobicity produced by six or nine additional methylene and two olefinic carbons to the peptide to increase toxicity to human normal cells. This situation may be resolved through the addition of polar character and glycosylation into the sequence to decrease the averaged hydrophobicity to improve the selectivity of these peptides towards cancer cells over normal cells. These modifications of these peptides are under way, and the present study was focused on the improved anti-tumor activity of template peptide hymenochirin-1B.

[3] = system: human normal liver cell LO-2; experiment: MTT toxicity against normal cells, LO-2; assay type: cell-based; details: 96 h
Procedure: as §1, §2

[4] = system: human normal kidney cell 293 T; experiment: MTT toxicity against normal cells, 293T; assay type: cell-based; details: 96 h
Procedure: as §1, §2

[5] = Circular dichroism, α-helicity; assay type: physicochemical; details: CD, TFE/water (1:1), 50 μM peptide, 25 °C, 1 mm cuvette, calculated from [θ]222
Procedure: The linear and stapled peptides were dissolved in the trifluoroethanol (TFE) and water (1 : 1) to a final concentration of 50 μM, respectively. The CD spectra were obtained with 1 mm quartz cuvette on Jasco-815 spectropolarimeter at 25 °C. The measurement parameters were set up as follows: wavelength, 185–260 nm; step resolution, 0.5 nm; speed, 20 nm min^−1. All spectra were converted to a uniform scale of molar ellipticity after background subtraction. The curves were smoothed using standard parameters. The ellipticity in the acquired CD spectra was converted to the molar ellipticity using the equation: [θ] = θ/(10 × c × l), where, [θ] is the Molar ellipticity (deg cm^2. d mol^−1), θ is the observed ellipticity corrected for the buffer at a given wavelength (m deg), c is the molar concentration and l is the path length (cm). The helicity of each peptide was calculated as described in a literature based on the ellipticity of the peptide's spectrum at 222 nm and the number of amino acids in the peptide sequence.
Circular dichroism (CD) spectroscopy was used to investigate the secondary structures of the stapled and template peptides to probe structural changes induced by conformation constraint in a membrane-like milieu, including […] (TFE) and water (1 : 1). […] (Table 1, ESI ^†).

Row | Helicity (%) [5] [%] | SMILES | ring closure, overall yield [1] [%] | IC50 (μM) BEAS-2B, toxicity against normal cells [2] [µM] | IC50 (μM) LO-2, toxicity against normal cells [3] [µM] | IC50 (μM) 293T, toxicity against normal cells [4] [µM]
1 |  | C=CCCC[C@](C)(NC(=O)CNC(=O)[C@H](CCCCNC(=O)OC(C)(C)C)NC(=O)[C@@H](NC(=O)[C@](C)(CCCC=C)NC(=O)CNC(=O)[C@H](CCCCNC(=O)OC(C)(C)C)NC(=O)[C@H](CC(C)C)NC(=O)[C@@H](NC(=O)[C@H](CCCCNC(=O)OC(C)(C)C)NC(=O)[C@H](CCCCNC(=O)OC(C)(C)C)NC(=O)[C@H](CC(C)C)NC(=O)[C@H](CC(=O)NC(c1ccccc1)(c1ccccc1)c1ccccc1)NC(=O)[C@H](CC(=O)OC(C)(C)C)NC(=O)[C@H](CCCCNC(=O)OC(C)(C)C)NC(=O)[C@@H](NC(=O)[C@H](CCC(=O)OC(C)(C)C)NC(=O)[C@@H]1CCCN1C(=O)[C@H](COC(C)(C)C)NC(=O)[C@H](CC(C)C)NC(=O)[C@H](CCCCNC(=O)OC(C)(C)C)NC(=O)[C@@H](NC(=O)OCC1c2ccccc2-c2ccccc21)[C@@H](C)CC)[C@@H](C)OC(C)(C)C)C(C)C)[C@@H](C)CC)C(=O)N[C@H](C(=O)N[C@@H](C)C(=O)N[C@H](C(=O)N[C@@H](C)C(=O)N[C@@H](CCCCNC(=O)OC(C)(C)C)C(=O)N[C@@H](CCSC)C(=O)N[C@H](C(N)=O)C(C)C)C(C)C)[C@@H](C)CC | 19.9 |  |  | 
2 |  | C=CCCC[C@](C)(NC(=O)[C@@H](NC(=O)[C@H](C)NC(=O)CNC(=O)[C@H](CCCCNC(=O)OC(C)(C)C)NC(=O)[C@H](CC(C)C)NC(=O)[C@@H](NC(=O)[C@H](CCCCNC(=O)OC(C)(C)C)NC(=O)[C@H](CCCCNC(=O)OC(C)(C)C)NC(=O)[C@H](CC(C)C)NC(=O)[C@H](CC(=O)NC(c1ccccc1)(c1ccccc1)c1ccccc1)NC(=O)[C@H](CC(=O)OC(C)(C)C)NC(=O)[C@H](CCCCNC(=O)OC(C)(C)C)NC(=O)[C@@H](NC(=O)[C@H](CCC(=O)OC(C)(C)C)NC(=O)[C@@H]1CCCN1C(=O)[C@H](COC(C)(C)C)NC(=O)[C@H](CC(C)C)NC(=O)[C@H](CCCCNC(=O)OC(C)(C)C)NC(=O)[C@@H](NC(=O)OCC1c2ccccc2-c2ccccc21)[C@@H](C)CC)[C@@H](C)OC(C)(C)C)C(C)C)[C@@H](C)CC)C(=O)NCC(=O)N[C@@H](C)C(=O)N[C@H](C(=O)N[C@@](C)(CCCC=C)C(=O)N[C@H](C(=O)N[C@@H](C)C(=O)N[C@@H](CCCCNC(=O)OC(C)(C)C)C(=O)N[C@@H](CCSC)C(=O)N[C@H](C(N)=O)C(C)C)C(C)C)[C@@H](C)CC | 14.1 |  |  | 
3 |  | C=CCCC[C@](C)(NC(=O)[C@H](CCCCNC(=O)OC(C)(C)C)NC(=O)[C@@H](NC(=O)[C@H](CCC(=O)OC(C)(C)C)NC(=O)[C@](C)(CCCC=C)NC(=O)[C@H](COC(C)(C)C)NC(=O)[C@H](CC(C)C)NC(=O)[C@H](CCCCNC(=O)OC(C)(C)C)NC(=O)[C@@H](NC(=O)OCC1c2ccccc2-c2ccccc21)[C@@H](C)CC)[C@@H](C)OC(C)(C)C)C(=O)N[C@@H](CC(=O)NC(c1ccccc1)(c1ccccc1)c1ccccc1)C(=O)N[C@@H](CC(C)C)C(=O)N[C@@H](CCCCNC(=O)OC(C)(C)C)C(=O)N[C@@H](CCCCNC(=O)OC(C)(C)C)C(=O)N[C@H](C(=O)N[C@@H](CC(C)C)C(=O)N[C@@H](CCCCNC(=O)OC(C)(C)C)C(=O)NCC(=O)N[C@@H](C)C(=O)N[C@H](C(=O)N[C@@H](CCCCNC(=O)OC(C)(C)C)C(=O)NCC(=O)N[C@@H](C)C(=O)N[C@H](C(=O)N[C@@H](C)C(=O)N[C@H](C(=O)N[C@@H](C)C(=O)N[C@@H](CCCCNC(=O)OC(C)(C)C)C(=O)N[C@@H](CCSC)C(=O)N[C@H](C(N)=O)C(C)C)C(C)C)[C@@H](C)CC)[C@@H](C)CC)C(C)C | 11.4 |  |  | 
4 | 65.7 | CC[C@H](C)[C@H](N)C(=O)N[C@@H](CCCCN)C(=O)N[C@@H](CC(C)C)C(=O)N[C@@H](CO)C(=O)N1CCC[C@H]1C(=O)N[C@@H](CCC(=O)O)C(=O)N[C@H](C(=O)N[C@@H](CCCCN)C(=O)N[C@@H](CC(=O)O)C(=O)N[C@]1(C)CCCCCCC=CCCC[C@@](C)(C(=O)N[C@@H](C)C(=O)N[C@H](C(=O)N[C@@H](CCCCN)C(=O)NCC(=O)N[C@@H](C)C(=O)N[C@H](C(=O)N[C@@H](C)C(=O)N[C@H](C(=O)N[C@@H](C)C(=O)N[C@@H](CCCCN)C(=O)N[C@@H](CCSC)C(=O)N[C@H](C(N)=O)C(C)C)C(C)C)[C@@H](C)CC)[C@@H](C)CC)NC(=O)[C@H](CCCCN)NC(=O)[C@H](CC(C)C)NC(=O)[C@H](C(C)C)NC(=O)[C@H](CCCCN)NC(=O)[C@H](CCCCN)NC(=O)[C@H](CC(C)C)NC1=O)[C@@H](C)O [H-3] (H-IKLSPETKD[R8]LKKVLK[S5]AIKGAIAVAKMV-NH2; staple 10-17) |  | 7.95 ± 0.36 | 7.61 ± 0.43 | 4.58 ± 0.34
5 | 64.9 | CC[C@H](C)[C@H](N)C(=O)N[C@@H](CCCCN)C(=O)N[C@@H](CC(C)C)C(=O)N[C@@H](CO)C(=O)N1CCC[C@H]1C(=O)N[C@@H](CCC(=O)O)C(=O)N[C@H](C(=O)N[C@@H](CCCCN)C(=O)N[C@@H](CC(=O)O)C(=O)N[C@@H](CC(N)=O)C(=O)N[C@@H](CC(C)C)C(=O)N[C@@H](CCCCN)C(=O)N[C@@H](CCCCN)C(=O)N[C@H](C(=O)N[C@@H](CC(C)C)C(=O)N[C@@H](CCCCN)C(=O)NCC(=O)N[C@@H](C)C(=O)N[C@H](C(=O)N[C@]1(C)CCCCCCC=CCCC[C@@](C)(C(=O)N[C@@H](CCSC)C(=O)N[C@H](C(N)=O)C(C)C)NC(=O)[C@H](C)NC(=O)[C@H](C(C)C)NC(=O)[C@H](C)NC(=O)[C@H]([C@@H](C)CC)NC(=O)[C@H](C)NC(=O)CNC1=O)[C@@H](C)CC)C(C)C)[C@@H](C)O [H-6] (H-IKLSPETKDNLKKVLKGAI[R8]GAIAVA[S5]MV-NH2; staple 20-27) |  | 46.58 ± 0.42 | 49.77 ± 0.22 | 60.11 ± 0.35
6 | 65.9 | CC[C@H](C)[C@H](N)C(=O)N[C@@H](CCCCN)C(=O)N[C@@H](CC(C)C)C(=O)N[C@@H](CO)C(=O)N1CCC[C@H]1C(=O)N[C@@H](CCC(=O)O)C(=O)N[C@H](C(=O)N[C@@H](CCCCN)C(=O)N[C@@H](CC(=O)O)C(=O)N[C@@H](CC(N)=O)C(=O)N[C@@H](CC(C)C)C(=O)N[C@@H](CCCCN)C(=O)N[C@@H](CCCCN)C(=O)N[C@H](C(=O)N[C@@H](CC(C)C)C(=O)N[C@@H](CCCCN)C(=O)NCC(=O)N[C@@H](C)C(=O)N[C@H](C(=O)N[C@@H](CCCCN)C(=O)NCC(=O)N[C@@]1(C)CCCC=CCCC[C@@](C)(C(=O)N[C@@H](CCCCN)C(=O)N[C@@H](CCSC)C(=O)N[C@H](C(N)=O)C(C)C)NC(=O)[C@H](C(C)C)NC(=O)[C@H](C)NC(=O)[C@H]([C@@H](C)CC)NC1=O)[C@@H](C)CC)C(C)C)[C@@H](C)O [H-7] (H-IKLSPETKDNLKKVLKGAIKG[S5]IAV[S5]KMV-NH2; staple 22-26) |  | 7.50 ± 0.32 | 6.52 ± 0.32 | 7.25 ± 0.26
7 | 60.5 | CC[C@H](C)[C@H](N)C(=O)N[C@@H](CCCCN)C(=O)N[C@@H](CC(C)C)C(=O)N[C@@H](CO)C(=O)N1CCC[C@H]1C(=O)N[C@@H](CCC(=O)O)C(=O)N[C@H](C(=O)N[C@@H](CCCCN)C(=O)N[C@@H](CC(=O)O)C(=O)N[C@@H](CC(N)=O)C(=O)N[C@@H](CC(C)C)C(=O)N[C@@H](CCCCN)C(=O)N[C@@H](CCCCN)C(=O)N[C@H](C(=O)N[C@@H](CC(C)C)C(=O)N[C@@H](CCCCN)C(=O)NCC(=O)N[C@@H](C)C(=O)N[C@H](C(=O)N[C@@]1(C)CCCC=CCCC[C@@](C)(C(=O)N[C@H](C(=O)N[C@@H](C)C(=O)N[C@@H](CCCCN)C(=O)N[C@@H](CCSC)C(=O)N[C@H](C(N)=O)C(C)C)C(C)C)NC(=O)[C@H]([C@@H](C)CC)NC(=O)[C@H](C)NC(=O)CNC1=O)[C@@H](C)CC)C(C)C)[C@@H](C)O [H-8] (H-IKLSPETKDNLKKVLKGAI[S5]GAI[S5]VAKMV-NH2; staple 20-24) |  | 12.82 ± 0.25 | 24.82 ± 0.44 | 15.58 ± 0.36
